PMC9814530, “Rapid de novo discovery of peptidomimetic affinity reagents for human angiotensin converting enzyme 2” (Communications Chemistry, 2022)
pKd: −log10 of the molar value. *1 amine or outer side, *2 acyl side, *3 side chain or, on linkers, in order; H or OH if unused. Where a SMILES comes first, the peptide text is derived from it. Where no end group is shown, it is not given here. [ ]: non-standard residue; d: D form. Phe(3,4-(OMe)2) = COc1ccc(C[C@H](N)C(=O)O)cc1OC; Phe(3,4-F2) = N[C@@H](Cc1ccc(F)c(F)c1)C(=O)O; Ala(4-thiazolyl) = N[C@@H](Cc1cscn1)C(=O)O; X1 = O=C(C1(c2ccccc2)CCN([*:1])CC1)[*:2]; Phe(4-NH2) = Nc1ccc(C[C@H](N)C(=O)O)cc1; Met(O2) = CS(=O)(=O)CC[C@H](N)C(=O)O; Ala(cPr) = N[C@@H](CC1CC1)C(=O)O; Hyp = O=C(O)[C@@H]1C[C@@H](O)CN1; hArg = N=C(N)NCCCC[C@H](N)C(=O)O; Cha = N[C@@H](CC1CCCCC1)C(=O)O; 4Amb = NCc1ccc(C(=O)O)cc1; β3hS = N[C@@H](CO)CC(=O)O; Orn = NCCC[C@H](N)C(=O)O; βAla = NCCC(=O)O

What was measured:
12ca5 = assay: BLI binding to an unrelated (off-target) protein; details: BLI, 12ca5 at 500 nM
Experimental: Peptide binding validation was carried out using the ForteBio Octet RED96 system. The chamber temperature was kept constant at 30 °C with a plate agitation speed at 1000 rpm. Briefly, streptavidin (SA)-coated biosensor tips were dipped into 200 μL of 1.0–2.0 μM biotinylated peptide solution (in a kinetic buffer (K.B.): 1 × PBS with 0.1% BSA and 0.02% Tween-20) for peptides immobilization. Once loaded with peptides, the tips were then moved into solutions containing various concentrations (1000, 500, 250, 125, and 62.5 nM) of recombinant ACE2 protein (purchased from Sino Biological, Catalog number 10108-H08H) in the K.B. to obtain the association curve. After the 180 s association step, the tips were moved back into the K.B. to obtain the dissociation curve. Buffer-only and protein-only conditions (concentration at 1000 nM) were used as references for background subtraction. The association and dissociation curves were fitted with the ForteBio Biosystems Data Analysis Software under 5 experimental conditions (n = 5, global fitting algorithm, binding model 1:1) to calculate the apparent dissociation constant (KD). […]
4.4 The binding of ABP noncanonical peptides to an unrelated protein
N6, and N8 to an unrelated protein, 12ca5, measured by BLI at concentration
(§1) (1 picture or pasted object on this page, not shown here)

ACE2 [1] = biological target: T1, ACE2 (Homo sapiens, UniProt Q9BYF1); assay: ELISA detection of ACE2 coated from 1 x PBS; assay type: binding; details: ACE2 in 1 x PBS 10 pM-100 nM coated; biotinylated peptide 100 nM; streptavidin-HRP, TMB, A450
T1 sequence (Q9BYF1 18-740 limits assumed): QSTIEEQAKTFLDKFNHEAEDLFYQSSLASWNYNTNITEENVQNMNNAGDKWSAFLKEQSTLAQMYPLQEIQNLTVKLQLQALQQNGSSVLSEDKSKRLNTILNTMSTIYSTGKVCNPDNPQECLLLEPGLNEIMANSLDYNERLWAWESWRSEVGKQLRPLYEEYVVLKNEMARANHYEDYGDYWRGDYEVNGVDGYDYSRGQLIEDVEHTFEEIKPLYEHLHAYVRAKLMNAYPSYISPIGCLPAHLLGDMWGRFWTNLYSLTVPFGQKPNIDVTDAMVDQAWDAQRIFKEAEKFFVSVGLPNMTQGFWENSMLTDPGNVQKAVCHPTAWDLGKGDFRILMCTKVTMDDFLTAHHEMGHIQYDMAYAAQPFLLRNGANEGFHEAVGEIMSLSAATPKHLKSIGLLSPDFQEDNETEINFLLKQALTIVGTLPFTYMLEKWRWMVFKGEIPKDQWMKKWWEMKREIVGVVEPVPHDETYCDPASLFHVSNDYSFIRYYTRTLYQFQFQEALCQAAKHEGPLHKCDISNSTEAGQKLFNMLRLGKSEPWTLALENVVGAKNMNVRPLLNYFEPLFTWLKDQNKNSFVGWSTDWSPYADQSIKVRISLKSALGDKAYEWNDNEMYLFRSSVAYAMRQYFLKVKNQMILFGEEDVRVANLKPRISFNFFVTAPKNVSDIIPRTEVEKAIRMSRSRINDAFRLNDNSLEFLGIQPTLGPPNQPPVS
Experimental: However, we observed a decreased detection sensitivity presumably due to the decreased amount of ACE2 being immobilized on the plate with many other serum proteins present. […] The plate was incubated with ABP N1 or control peptide, followed by streptavidin-HRP and TMB substrate. Absorbance was measured at 450 nm. The experiment was performed in technical triplicates (n = 3). Each data point, the mean signal as a bar, and error bars from experimental standard deviation, and statistical significance calculated with the unpaired Student’s t-test are shown. A serial dilution of soluble ACE2 was coated onto an ELISA plate (96-well format) overnight at 4 °C. The next day, the plate was blocked with 5% BSA in 1 × PBS supplement with 0.05% Tween-20 (PBST, pH 7.4) for 2–3 h at room temperature. […] Control groups are biotinylated peptide ABP N8 and PBST alone. The supernatant was then removed, and the wells were washed with PBST (3× 200 µL). Streptavidin-HRP conjugate in PBST (0.25 µg/mL, 100 µL) was added to each well and incubated for 30 min at room temperature. The plate was PBST-washed again (3 × 200 µL) before color development with 100 µL 1-Step™ Ultra TMB-ELISA Substrate Solution (Thermo Fisher, Catalog number 34028). After 10 min, the reaction was quenched with 2.0 M sulfuric acid (100 µL). Finally, the absorbance at 450 nm was measured on a microplate reader (BioTek) for all treated wells. […]

ACE2 [2] = biological target: T1, ACE2; assay: Bio-layer interferometry (BLI) binding of immobilized biotinylated peptides to ACE2; details: BLI; for binding to ACE2 by BLI (in words): scrambled peptides tested at 250 nM ACE2; for pKd: biotinylated peptide on streptavidin tips, ACE2 1000-62.5 nM, 30 °C, global 1:1 fit, read-out: KD (dissociation constant) to ACE2
Experimental: Peptide binding validation was carried out using the ForteBio Octet RED96 system. The chamber temperature was kept constant at 30 °C with a plate agitation speed at 1000 rpm. Briefly, streptavidin (SA)-coated biosensor tips were dipped into 200 μL of 1.0–2.0 μM biotinylated peptide solution (in a kinetic buffer (K.B.): 1 × PBS with 0.1% BSA and 0.02% Tween-20) for peptides immobilization. Once loaded with peptides, the tips were then moved into solutions containing various concentrations (1000, 500, 250, 125, and 62.5 nM) of recombinant ACE2 protein (purchased from Sino Biological, Catalog number 10108-H08H) in the K.B. to obtain the association curve. After the 180 s association step, the tips were moved back into the K.B. to obtain the dissociation curve. Buffer-only and protein-only conditions (concentration at 1000 nM) were used as references for background subtraction. The association and dissociation curves were fitted with the ForteBio Biosystems Data Analysis Software under 5 experimental conditions (n = 5, global fitting algorithm, binding model 1:1) to calculate the apparent dissociation constant (KD).
Supplementary Note 4: Binding affinity measurements
4.1 BLI raw binding data of noncanonical peptides […]
affinity was reported using the kinetic fitting results ( KD is calculated by divide the […]
off rate by on rate). […] The ACE2
as §1
4.2 BLI raw binding data of canonical peptides
Supplementary Fig. 20. The BLI binding curve fitting (red lines) of ABP C1-C4 and ABP C7-C9 from Library 1 AS-MS against ACE2.
ACE2 concentration was 250 nM.

ACE2 [3] = biological target: T1, ACE2; assay: BLI binding competition of known ACE2 binders (AngII, MLN-4760) on the ABP-ACE2 interaction; design: Soluble ACE2 (5 µL, 0.62 mg/mL) was mixed with 50 µL normal human serum; details: immobilized biotinylated peptide; for inhibition of ABP binding to ACE2 by AngII: 500 nM ACE2 + 5 uM AngII (10-fold excess); for inhibition of ABP binding to ACE2 by MLN-4760: 500 nM ACE2 + 5 uM MLN-4760 (10-fold excess)

Row | binding to ACE2 by BLI (in words) (ACE2 [2]) | Molecule | binding to unrelated protein 12ca5 (in words) (12ca5) | also measured
1 |  | LQWHPAYWFMQVK-NH2 [ABP C8] |  | pKd (ACE2 [2]): 7.44
2 |  | COc1ccc(C[C@H](NC(=O)[C@H](Cc2ccc(F)c(F)c2)NC(=O)[C@@H]2C[C@@H](O)CN2C(=O)[C@H]2CCCN2C(=O)[C@H]2CCCN2C(=O)CNC(=O)[C@H](CC2CC2)NC(=O)[C@H](Cc2cscn2)NC(=O)[C@@H](N)CC2CC2)C(=O)N[C@@H](Cc2cscn2)C(=O)NCCC(=O)NCc2ccc(C(=O)N[C@@H](CCCCN)C(N)=O)cc2)cc1OC [ABP N4] (H-[Ala(cPr)][Ala(4-thiazolyl)][Ala(cPr)]G[dP][dP][Hyp][Phe(3,4-F2)][Phe(3,4-(OMe)2)][Ala(4-thiazolyl)][βAla][4Amb]K-NH2) | minimal binding | binding to unrelated protein 12ca5 (in words) (12ca5; listed as N4): No apparent binding; inhibition of ABP binding to ACE2 by AngII (ACE2 [3]): not inhibited; inhibition of ABP binding to ACE2 by MLN-4760 (ACE2 [3]): completely inhibited
3 | No apparent binding | CS(=O)(=O)CC[C@H](NC(=O)C[C@H](CO)NC(=O)[C@H](CC1CC1)NC(=O)[C@@H](N)Cc1cscn1)C(=O)N[C@@H](CC1CCCCC1)C(=O)N[C@@H](Cc1cscn1)C(=O)N[C@@H](CCCN)C(=O)N[C@@H](Cc1ccc(F)c(F)c1)C(=O)N[C@@H](CCCN)C(=O)N[C@@H](CCC(N)=O)C(=O)NCC(=O)N[C@@H](Cc1ccc(N)cc1)C(=O)N[C@@H](CCCCN)C(N)=O [Scrm N1.1] (H-[Ala(4-thiazolyl)][Ala(cPr)][β3hS][Met(O2)][Cha][Ala(4-thiazolyl)][Orn][Phe(3,4-F2)][Orn]QG[Phe(4-NH2)]K-NH2; N-terminus assumed) |  | 
4 | no binding | LQAKPVPQFWPFK-NH2 [ABP C5] |  | 
5 |  | LHKQFGWHWFGFK-NH2 [ABP C3] |  | pKd (ACE2 [2]): 7.46
6 |  | LQRGVFGFPYRVK-NH2 [ABP C7] |  | pKd (ACE2 [2]): 7.59
7 |  | CS(=O)(=O)CC[C@H](NC(=O)[C@H](Cc1ccc(F)c(F)c1)NC(=O)[C@H](CCCN)NC(=O)[C@@H](N)CC1CC1)C(=O)N1C[C@H](O)C[C@H]1C(=O)N[C@@H](Cc1cscn1)C(=O)N1CCC[C@@H]1C(=O)N[C@@H](CCC(N)=O)C(=O)N[C@@H](Cc1ccc(F)c(F)c1)C(=O)N[C@@H](CC1CCCCC1)C(=O)N[C@@H](CC1CCCCC1)C(=O)NCCC(=O)N[C@@H](CCCCN)C(N)=O [ABP N6] (H-[Ala(cPr)][Orn][Phe(3,4-F2)][Met(O2)][Hyp][Ala(4-thiazolyl)][dP]Q[Phe(3,4-F2)][Cha][Cha][βAla]K-NH2) | minimal binding | binding to unrelated protein 12ca5 (in words) (12ca5; listed as N6): No apparent binding; inhibition of ABP binding to ACE2 by AngII (ACE2 [3]): not inhibited; inhibition of ABP binding to ACE2 by MLN-4760 (ACE2 [3]): not inhibited
8 | no binding | CS(=O)(=O)CC[C@H](NC(=O)[C@H]1CCCN1C(=O)[C@H](CCC(N)=O)NC(=O)CNC(=O)[C@H](Cc1ccc(F)c(F)c1)NC(=O)[C@H](Cc1cscn1)NC(=O)[C@@H](N)CC1CC1)C(=O)N[C@@H](CC1CCCCC1)C(=O)N[C@@H](CCC(N)=O)C(=O)N[C@@H](Cc1cscn1)C(=O)NCCC(=O)N[C@@H](Cc1cscn1)C(=O)N[C@@H](CCCCN)C(N)=O [ABP N5] (H-[Ala(cPr)][Ala(4-thiazolyl)][Phe(3,4-F2)]GQ[dP][Met(O2)][Cha]Q[Ala(4-thiazolyl)][βAla][Ala(4-thiazolyl)]K-NH2; N-terminus assumed) | No apparent binding | 
9 | No apparent binding | CS(=O)(=O)CC[C@H](N)C(=O)N[C@@H](CCCN)C(=O)N[C@@H](CC1CCCCC1)C(=O)N[C@@H](Cc1ccc(F)c(F)c1)C(=O)N[C@@H](Cc1ccc(F)c(F)c1)C(=O)N[C@@H](CO)CC(=O)NCC(=O)N[C@@H](Cc1cscn1)C(=O)N[C@@H](Cc1cscn1)C(=O)N[C@@H](CC1CC1)C(=O)N[C@@H](CCC(N)=O)C(=O)N[C@@H](CCCN)C(=O)N[C@@H](CCCCN)C(N)=O [Scrm N1.2] (H-[Met(O2)][Orn][Cha][Phe(3,4-F2)][Phe(3,4-F2)][β3hS]G[Ala(4-thiazolyl)][Ala(4-thiazolyl)][Ala(cPr)]Q[Orn]K-NH2; N-terminus assumed) |  | 
10 | no binding | LQKFLGERFPGWK-NH2 [ABP C6] |  | 

Row | Molecule | binding to ACE2 by BLI (in words) (ACE2 [2]) | binding to unrelated protein 12ca5 (in words) (12ca5) | also measured
11 | CS(=O)(=O)CC[C@H](NC(=O)[C@H](Cc1ccc(F)c(F)c1)NC(=O)[C@H](CCS(C)(=O)=O)NC(=O)[C@H](CC1CCCCC1)NC(=O)[C@H](CC(=O)O)NC(=O)C1(c2ccccc2)CCN(C(=O)CCNC(=O)CNC(=O)[C@H]2CCCN2C(=O)[C@H](CCCCNC(=N)N)NC(=O)[C@H](Cc2cscn2)NC(=O)[C@@H](N)CC2CC2)CC1)C(=O)N[C@@H](CCCCN)C(N)=O [ABP N8] (H-[Ala(cPr)][Ala(4-thiazolyl)][hArg][dP]G[βAla][X1]D[Cha][Met(O2)][Phe(3,4-F2)][Met(O2)]K-NH2; N-terminus assumed) | no binding | No apparent binding | ELISA detection of ACE2 (in words) (ACE2 [1]): no binding
